According to ChEMBL document CHEMBL5357068, “Discovery of Novel TLR7 Agonists as Systemic Agent for Combination With aPD1 for Use in Immuno-oncology” (ACS Med Chem Lett, 2024):
pEC50, pIC50: −log10 of the molar value.

Experiments:
[1] = test system: Blood; assay: Induction of IFIT3 secretion in human whole blood; type: functional, tissue-based
[2] = Protein binding in human plasma assessed as free fraction; type: ADME, cell-free
[3] = Protein binding in mouse plasma assessed as free fraction; type: ADME, cell-free
[4] = test system: THP-1; assay: Cytotoxicity against human THP-1 cells; type: toxicity, cell-based
[5] = Clearance in Balb/c mouse at 0.5 mg/kg, iv measured after 2 hrs by LC-MS analysis; type: ADME, organism-based; details: in vivo
[6] = biological target: T1, Nuclear receptor subfamily 1 group I member 2 (Homo sapiens, UniProt O75469); assay: Transactivation of PXR (unknown origin)
T1 sequence (O75469 whole entry): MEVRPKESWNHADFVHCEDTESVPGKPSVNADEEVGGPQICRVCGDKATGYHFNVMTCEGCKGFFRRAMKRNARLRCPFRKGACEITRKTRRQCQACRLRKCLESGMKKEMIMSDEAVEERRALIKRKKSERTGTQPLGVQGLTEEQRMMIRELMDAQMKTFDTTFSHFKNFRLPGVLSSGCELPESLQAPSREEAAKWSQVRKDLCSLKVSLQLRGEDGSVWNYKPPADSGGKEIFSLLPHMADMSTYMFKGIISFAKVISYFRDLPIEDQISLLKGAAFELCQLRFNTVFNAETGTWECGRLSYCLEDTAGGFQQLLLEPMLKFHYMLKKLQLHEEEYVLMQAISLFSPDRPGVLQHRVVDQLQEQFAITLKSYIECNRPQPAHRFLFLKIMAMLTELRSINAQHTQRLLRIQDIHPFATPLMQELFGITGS

[7] = biological target: Toll-like receptor 3 (Homo sapiens) (UniProt O15455); assay: Agonist activity at human TLR3
Toll-like receptor 3 (Homo sapiens), sequence (O15455 whole entry): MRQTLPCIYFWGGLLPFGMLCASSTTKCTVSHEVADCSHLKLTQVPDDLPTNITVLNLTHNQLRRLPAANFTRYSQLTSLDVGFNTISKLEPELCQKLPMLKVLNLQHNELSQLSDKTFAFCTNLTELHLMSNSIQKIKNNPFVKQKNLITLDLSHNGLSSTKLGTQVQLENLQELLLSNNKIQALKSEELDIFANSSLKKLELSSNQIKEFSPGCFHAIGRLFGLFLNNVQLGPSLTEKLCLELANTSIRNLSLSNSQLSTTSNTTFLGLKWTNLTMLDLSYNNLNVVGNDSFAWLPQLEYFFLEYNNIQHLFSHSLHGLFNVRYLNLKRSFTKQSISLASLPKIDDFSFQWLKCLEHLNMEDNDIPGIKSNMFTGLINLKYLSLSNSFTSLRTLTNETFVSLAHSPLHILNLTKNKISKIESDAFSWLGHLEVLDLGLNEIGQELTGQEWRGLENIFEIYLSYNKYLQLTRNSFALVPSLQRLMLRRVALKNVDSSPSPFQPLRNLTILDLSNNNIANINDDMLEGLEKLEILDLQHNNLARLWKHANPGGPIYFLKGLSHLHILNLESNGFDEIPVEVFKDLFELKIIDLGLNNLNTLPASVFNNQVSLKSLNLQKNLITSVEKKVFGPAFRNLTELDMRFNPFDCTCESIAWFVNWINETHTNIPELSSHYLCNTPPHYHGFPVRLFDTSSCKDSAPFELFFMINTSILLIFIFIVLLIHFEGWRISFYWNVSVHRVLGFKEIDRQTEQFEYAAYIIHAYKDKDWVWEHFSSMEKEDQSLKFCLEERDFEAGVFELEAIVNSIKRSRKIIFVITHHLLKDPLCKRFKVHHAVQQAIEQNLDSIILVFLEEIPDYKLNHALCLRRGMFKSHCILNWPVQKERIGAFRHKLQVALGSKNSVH

[8] = test system: Blood; assay: Induction of IP-10 secretion in mouse whole blood; type: functional, tissue-based
[9] = Metabolic stability in mouse liver microsomes assessed as compound remaining; type: ADME, Microsome
[10] = test system: Blood; assay: Induction of IP-10 secretion in human whole blood; type: functional, tissue-based
[11] = AUClast in Balb/c mouse at 0.5 mg/kg, iv measured after 2 hrs by LC-MS analysis; type: ADME, organism-based; parameters: dose 0.5 mg/kg, time 2 hrs, route iv; details: in vivo
[12] = biological target: Voltage-gated inwardly rectifying potassium channel KCNH2 (Homo sapiens, UniProt Q12809); assay: Inhibition of hERG by patch clamp assay; type: toxicity
Voltage-gated inwardly rectifying potassium channel KCNH2, sequence (Q12809 whole entry): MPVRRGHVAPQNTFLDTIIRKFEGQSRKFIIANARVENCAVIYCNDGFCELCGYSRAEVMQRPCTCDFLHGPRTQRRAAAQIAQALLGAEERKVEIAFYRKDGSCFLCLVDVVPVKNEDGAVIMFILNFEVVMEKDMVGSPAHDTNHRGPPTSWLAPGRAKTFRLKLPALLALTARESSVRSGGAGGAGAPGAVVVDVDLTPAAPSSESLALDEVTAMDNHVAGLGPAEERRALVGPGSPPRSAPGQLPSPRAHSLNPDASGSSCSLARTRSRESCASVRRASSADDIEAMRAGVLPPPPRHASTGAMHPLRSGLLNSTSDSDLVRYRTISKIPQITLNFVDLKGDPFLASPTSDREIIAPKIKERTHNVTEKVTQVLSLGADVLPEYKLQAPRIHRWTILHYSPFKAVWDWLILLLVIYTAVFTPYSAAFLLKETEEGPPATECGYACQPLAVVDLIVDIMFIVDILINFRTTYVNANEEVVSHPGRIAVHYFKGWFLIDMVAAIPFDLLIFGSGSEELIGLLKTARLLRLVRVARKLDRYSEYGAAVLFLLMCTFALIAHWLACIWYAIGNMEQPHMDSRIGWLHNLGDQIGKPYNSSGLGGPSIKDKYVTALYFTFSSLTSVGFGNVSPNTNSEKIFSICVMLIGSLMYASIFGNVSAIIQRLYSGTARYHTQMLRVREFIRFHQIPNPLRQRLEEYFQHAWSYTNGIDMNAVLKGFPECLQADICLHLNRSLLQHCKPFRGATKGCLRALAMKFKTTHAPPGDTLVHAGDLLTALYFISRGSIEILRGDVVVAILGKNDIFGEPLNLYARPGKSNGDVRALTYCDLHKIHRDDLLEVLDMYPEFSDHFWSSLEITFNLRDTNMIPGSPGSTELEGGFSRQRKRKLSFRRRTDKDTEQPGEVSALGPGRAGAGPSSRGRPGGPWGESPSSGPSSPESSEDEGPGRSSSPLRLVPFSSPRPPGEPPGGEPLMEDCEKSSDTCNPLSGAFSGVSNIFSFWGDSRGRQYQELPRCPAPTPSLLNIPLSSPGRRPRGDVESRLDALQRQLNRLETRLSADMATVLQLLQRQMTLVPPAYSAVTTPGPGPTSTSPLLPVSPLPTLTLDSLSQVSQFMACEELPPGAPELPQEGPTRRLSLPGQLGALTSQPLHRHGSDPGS

[13] = Metabolic stability in human liver microsomes assessed as compound remaining; type: ADME, Microsome
[14] = Permeability of compound at pH 5.5 by PAMPA; type: ADME; details: read-out: permeability
[15] = in vitro; details: PHA-activated T cells
[16] = Protein binding in cynomolgus monkey plasma assessed as free fraction; type: ADME, cell-free, Macaca fascicularis
[17] = biological target: Toll-like receptor 4 (Homo sapiens) (UniProt O00206); assay: Agonist activity at human TLR4
Toll-like receptor 4 (Homo sapiens), sequence (O00206 whole entry): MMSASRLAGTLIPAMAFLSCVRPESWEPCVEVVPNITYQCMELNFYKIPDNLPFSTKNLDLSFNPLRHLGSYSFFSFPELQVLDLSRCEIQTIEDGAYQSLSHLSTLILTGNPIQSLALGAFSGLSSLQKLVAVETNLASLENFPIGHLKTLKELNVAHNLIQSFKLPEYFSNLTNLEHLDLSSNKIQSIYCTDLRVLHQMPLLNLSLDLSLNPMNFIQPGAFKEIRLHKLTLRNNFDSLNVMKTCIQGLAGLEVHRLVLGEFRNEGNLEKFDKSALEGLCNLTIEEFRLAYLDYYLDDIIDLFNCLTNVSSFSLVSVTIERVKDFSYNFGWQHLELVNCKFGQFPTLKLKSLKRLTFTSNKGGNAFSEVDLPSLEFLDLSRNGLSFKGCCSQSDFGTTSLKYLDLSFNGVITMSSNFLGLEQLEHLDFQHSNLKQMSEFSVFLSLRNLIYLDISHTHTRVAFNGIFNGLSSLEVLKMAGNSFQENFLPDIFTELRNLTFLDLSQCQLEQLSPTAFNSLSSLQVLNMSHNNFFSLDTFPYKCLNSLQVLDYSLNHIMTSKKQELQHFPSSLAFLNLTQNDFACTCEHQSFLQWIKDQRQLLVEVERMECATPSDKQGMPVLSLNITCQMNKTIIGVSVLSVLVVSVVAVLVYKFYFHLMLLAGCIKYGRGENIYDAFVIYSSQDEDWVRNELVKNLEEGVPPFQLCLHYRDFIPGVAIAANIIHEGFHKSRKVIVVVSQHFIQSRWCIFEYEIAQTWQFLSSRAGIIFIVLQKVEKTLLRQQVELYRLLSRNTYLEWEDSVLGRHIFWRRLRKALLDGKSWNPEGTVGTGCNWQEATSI

CCC[C@@H](CCO)Nc1nc(N)nc2cnn(Cc3ccc(CNC4CCOCC4)cc3OC)c12
pEC50 [1]: 9.96 | fraction unbound [2]: 0.5 | fraction unbound [3]: 0.41 | EC [4]: > 25 µM | clearance [5]: 160 mL/min/kg | EC [6]: > 50 nM | EC [7]: > 5 µM | pEC50 [8]: 9.49 | Stability [9]: 81% | pEC50 [10]: 9.89 | AUC(0-t) at 2 h [11]: 0.183 µM·h | pIC50 [12]: ≤ 4.35 | Stability [13]: 75% | Papp [14]: 0.95 ×10⁻⁶ cm/s | pIC50 [15]: < 4.60 | fraction unbound [16]: 0.31 | EC [17]: > 5 µM
